Laboratory results as given in patent publication US10494384B2, “Urea peptoid boric acid compound, pharmaceutical composition thereof, preparation method therefor, and uses thereof” (Peking University, priority 2015, dated 2019).
Like-named read-outs stand apart in the source and are kept apart here.

Tests used:
[1] = molecular target: T1, 20S proteasome extracted from rat liver (CT-L) (Rattus norvegicus, UniProt P18421+P28075); experiment: inhibition of 20S proteasome, CT-L activity (fluorescent peptide); assay type: biochemical; details: rat liver 20S proteasome, 37° C., 1 h, read-out: inhibition rates (%) CT-L
T1 construct: 20S proteasome extracted from rat liver; from tissue; host or cells: rat liver
Method: (§1) 1 μg of 20S proteasome extracted from rat liver was incubated with a 100 μL solution containing various concentrations of the present compounds, 50 μM fluorescent peptides and 20 mM Tris-HCl at 37° C. for 1 h, respectively. […] 0.1% DMSO was used as a solvent control. Compared with the fluorescence of solvent control, an inhibition rate or IC50 value was calculated.

[2] = molecular target: T2, 20S proteasome extracted from rat liver (PGPH) (Rattus norvegicus, UniProt P28073+Q9JHW0); experiment: inhibition of 20S proteasome, PGPH activity (fluorescent peptide); assay type: biochemical; details: rat liver 20S proteasome, 37° C., 1 h, read-out: inhibition rates (%) PGPH
T2 construct: 20S proteasome extracted from rat liver; from tissue; host or cells: rat liver
Method: as §1

[3] = tested on: Hela, human cervical carcinoma; experiment: preliminary anti-tumor screening in vitro, MTT method; assay type: cell-based; details: read-out: inhibition rates (%) Hela
Procedure, shortened: (§2)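 Inhibition rates measured at 0.1, 1 or 10 μM compound; cell growth read by MTT for Hela, SRB for BGC-823, MCF-7 and A549.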

MKN45 = experiment: anti-tumor activity in vitro (IC50), MTT; assay type: cell-based; details: Homo sapiens, MKN-45, 72 h
Method: (§3) Cancer cells were cultured in vitro. When cell growth reached logarithmic phase, the cells were collected and centrifuged at 1000 rpm for 5 min, before the supernate was removed and the cells were suspended in a moderate amount of medium, and then the concentration of cell was adjusted to 3.5×10^4/mL. The cell suspension was added into a 96-well plate with 100 μL per well and cultured in a cell incubator (37° C., 5% CO2) for 24 h. Then test drugs of different end concentrations were added, and the negative control group was added DMSO (end concentration was 0.5%), while each group afforded three repetitive holes. After cultivation for another 72 h in the cell incubator, a solution containing 5 mg/ml MTT (20 μL) was added into each well and the 96-well plate was placed at 37° C. for 3 h. To each well was added 150 μL DMSO, after oscillation in a shaking table for 5 min, the optical density (OD) values at 492 nm/620 nm were measured. IC50 values were calculated by Prism Graphpad statistical software.

[4] = tested on: MGC803 stomach cancer cells; experiment: anti-tumor activity in vitro (IC50), MTT; assay type: cell-based; details: Homo sapiens, MGC-803, 72 h
Method: as §3

HepG2 liver cancer cells = experiment: anti-tumor activity in vitro (IC50), MTT; assay type: cell-based; details: Homo sapiens, 72 h
Method: as §3

95D = experiment: anti-tumor activity in vitro (IC50), MTT; assay type: cell-based; details: Homo sapiens, 72 h
Method: as §3

Hela = experiment: anti-tumor activity in vitro (IC50), MTT; assay type: cell-based; details: Homo sapiens, 72 h
Method: as §3

A549 = experiment: anti-tumor activity in vitro (IC50), MTT; assay type: cell-based; details: Homo sapiens, 72 h
Method: as §3

HL-60 = experiment: anti-tumor activity in vitro (IC50), MTT; assay type: cell-based; details: Homo sapiens, 72 h
Method: as §3

MDA-MB-231 = experiment: anti-tumor activity in vitro (IC50), MTT; assay type: cell-based; details: Homo sapiens, 72 h
Method: as §3

HCT116 = experiment: anti-tumor activity in vitro (IC50), MTT; assay type: cell-based; details: Homo sapiens, HCT-116, 72 h
Method: as §3

SKOV3 = experiment: anti-tumor activity in vitro (IC50), MTT; assay type: cell-based; details: Homo sapiens, SK-OV-3, 72 h
Method: as §3

SW1990 = experiment: anti-tumor activity in vitro (IC50), MTT; assay type: cell-based; details: Homo sapiens, 72 h
Method: as §3

BEL7404 = experiment: anti-tumor activity in vitro (IC50), MTT; assay type: cell-based; details: Homo sapiens, BEL-7404, 72 h
Method: as §3

A549, human lung cancer = experiment: preliminary anti-tumor screening in vitro, SRB method; assay type: cell-based; details: read-out: inhibition rates (%) A549
Procedure, shortened: as §2

MCF-7, breast cancer = experiment: as above; assay type: cell-based; details: Homo sapiens, read-out: inhibition rates (%) MCF-7; for inhibition at 0.1 µM: MCF7, 0.1 μM; for inhibition at 1 µM: MCF7, 1 μM; for inhibition at 10 µM: MCF7, 10 μM
Procedure, shortened: as §2

BGC-823, liver cancer = experiment: as above; assay type: cell-based; details: Homo sapiens, read-out: inhibition rates (%) BGC-823
Procedure, shortened: as §2

[5] = molecular target: T3, 20S proteasome extracted from rat liver (T-L) (Rattus norvegicus, UniProt P40112+Q9JHW0); experiment: inhibition of 20S proteasome, T-L activity (fluorescent peptide); assay type: biochemical; details: rat liver 20S proteasome, 37° C., 1 h, read-out: inhibition rates (%) T-L
T3 construct: 20S proteasome extracted from rat liver; from tissue; host or cells: rat liver
Method: as §1

[6] = stomach cancer cells, MTT, read-out: IC50 (μM) MGC803
[7] = liver cancer cells, read-out: IC50 (μM) HepG2

| Structure (SMILES) | inhibition at 0.1 µM [3] [%] | inhibition at 1 µM [3] [%] | inhibition at 10 µM [3] [%] | IC50 ([4]; MTT, read-out: IC50 MGC803) [µM] | IC50 [4, 6] [µM] | IC50 (HepG2 liver cancer cells; read-out: IC50 HepG2) [µM] | IC50 (HepG2 liver cancer cells; [7]) [µM] | IC50 (Hela) [nM] | IC50 (HL-60) [nM] | inhibition at 0.1 µM (A549, human lung cancer) [%] | inhibition at 1 µM (A549, human lung cancer) [%] | inhibition at 10 µM (A549, human lung cancer) [%] | inhibition at 0.1 µM (MCF-7, breast cancer) [%] | inhibition at 1 µM (MCF-7, breast cancer) [%] | inhibition at 10 µM (MCF-7, breast cancer) [%] | inhibition at 0.1 µM (BGC-823, liver cancer) [%] | inhibition at 1 µM (BGC-823, liver cancer) [%] | inhibition at 10 µM (BGC-823, liver cancer) [%] | other results |
| --- | --- | --- | --- | --- | --- | --- | --- | --- | --- | --- | --- | --- | --- | --- | --- | --- | --- | --- | --- |
| CC(C)C[C@H](NC(=O)[C@H](Cc1ccccc1)NC(=O)NCc1cccc(Cl)c1Cl)B(O)O [Example 20, N-L-phenylalanyl-L-leucine borate-N′-(2,3-dichloro-benzylamine)-urea] | 17.4 | 42.5 | 75.7 | 0.0175 | 0.00733 | 0.026 | 0.0378 | 117 | 27 | 65 | 68.2 | 69.3 | 32.2 | 42.2 | 45.5 | 50 | 47.1 | 50.2 | inhibition at 0.2 µM ([1]; 0.2 μM): 91.9%; inhibition at 2 µM ([1]; 2 μM): 96.5%; inhibition at 20 µM ([1]; 20 μM): 97%; melting point: 119 to 122 °C; inhibition at 0.2 µM ([2]; 0.2 μM): -23%; inhibition at 2 µM ([2]; 2 μM): -26.6%; inhibition at 20 µM ([2]; 20 μM): -28.9%; IC50 (MKN45): 20.1 nM; IC50 (95D): 41 nM; IC50 (A549): 1020 nM; IC50 (MDA-MB-231): 25.1 nM; IC50 (HCT116): 23 nM; IC50 (SKOV3): 46.3 nM; IC50 (SW1990): 80.3 nM; IC50 (BEL7404): 42.2 nM; inhibition at 0.2 µM ([5]; 0.2 μM): 35.6%; inhibition at 2 µM ([5]; 2 μM): 83.7%; inhibition at 20 µM ([5]; 20 μM): 92.6% |
| CC(C)C[C@H](NC(=O)[C@H](Cc1ccccc1)NC(=O)c1cnccn1)B(O)O [positive control, bortezomib, reference compound] | 41.6 | 43.2 | 47.3 | 0.00654 | 0.00578 | 0.00161 | 0.0366 | 224 | 7.6 | 59.9 | 63.8 | 66.1 | 27.6 | 32.8 | 40.7 | 41 | 43.6 | 46.8 | IC50 ([4]; MGC80-3, MTT, value ± spread, read-out: IC50 (μM), growth of stomach cancer cells (MGC80-3)): 0.0057 ± 0.001 µM |
